For orientation: Ki means the equilibrium dissociation constant of an inhibitor or competing ligand from its target. Usually Km stands for the substrate concentration at which the rate is half of its maximum. As a reminder, the kcat/Km is the turnover number divided by the Michaelis constant. Usually kcat stands for the number of substrate molecules converted per active site and unit of time at saturation.

Experimental findings from ChEMBL document CHEMBL1817576, “Specific inhibitions of annonaceous acetogenins on class II 3-hydroxy-3-methylglutaryl coenzyme A reductase from Streptococcus pneumoniae” (Bioorg Med Chem, 2011) are described below.

Test [1] can be described thus: Inhibition of Staphylococcus aureus recombinant HMGR class II expressed in Escherichia coli using HMG-CoA as substrate.
The nature of test [2]: Inhibition of Streptococcus pneumoniae recombinant HMGR class II expressed in Escherichia coli using HMG-CoA as substrate.
Test [3] is described as follows: Inhibition of Listeria monocytogenes recombinant HMGR class II expressed in Escherichia coli using HMG-CoA as substrate.
A short description of test [4]: Inhibition of Archaeoglobus fulgidus HMGCR 1 recombinant HMGR class II expressed in Escherichia coli using HMG-CoA as substrate.
Test [5] can be described thus: Inhibition of Pseudomonas mevalonii recombinant HMGR class II expressed in Escherichia coli using HMG-CoA as substrate. Also on record: species or system Pseudomonas sp. 'mevalonii'.
Test [6] deals with Streptococcus pneumoniae. Nature of the test: Ratio Ki for lovastatin to compound for recombinant Streptococcus pneumoniae HMGR class II.
Test [7] concerns Haloferax volcanii. The experiment in a line: Activity of Haloferax volcanii HMGR class I expressed in Escherichia coli BL21(DE3) using HMG-CoA substrate after 1 min by microplate reader.
The species entered for test [8] is Mesocricetus auratus. The experiment in a line: Activity of syrian hamsters HMGR class I expressed in Escherichia coli BL21(DE3) using HMG-CoA substrate after 1 min by microplate reader.
The test system of test [9] is Streptococcus pneumoniae. Nature of the test: Activity of Streptococcus pneumoniae recombinant HMGR class II expressed in Escherichia coli BL21(DE3) using HMG-CoA substrate after 1 min by microplate reader.
The test system of test [10] is Staphylococcus aureus. Nature of the test: Activity of Staphylococcus aureus HMGR class II expressed in Escherichia coli BL21(DE3) using HMG-CoA substrate after 1 min by microplate reader.
Test [11] has as its system Listeria monocytogenes. The experiment in a line: Activity of Listeria monocytogenes HMGR class II expressed in Escherichia coli BL21(DE3) using HMG-CoA substrate after 1 min by microplate reader.
The test system of test [12] is Listeria monocytogenes. The experiment in a line: Ratio of Kcat to Km for Listeria monocytogenes HMGR class II using NADPH substrate.
Test [13] has as its system Streptococcus pneumoniae. The experiment in a line: Activity of Streptococcus pneumoniae recombinant HMGR class II expressed in Escherichia coli BL21(DE3) using NADPH as substrate after 5 min by microplate reader.
The test system of test [14] is Listeria monocytogenes. Nature of the test: Activity of Listeria monocytogenes HMGR class II expressed in Escherichia coli BL21(DE3) using NADPH as substrate after 5 min by microplate reader.
Test [15] has as its system Haloferax volcanii. Nature of the test: Activity of Haloferax volcanii HMGR class I expressed in Escherichia coli BL21(DE3) using NADPH as substrate after 5 min by microplate reader.
The subject of test [16] is Staphylococcus aureus. The experiment in a line: Activity of Staphylococcus aureus HMGR class II expressed in Escherichia coli BL21(DE3) using NADPH as substrate after 5 min by microplate reader.
Test [17] relates to Streptococcus pneumoniae. The experiment in a line: Ratio of Kcat to Km for Streptococcus pneumoniae HMGR class II using NADPH substrate.
The species entered for test [18] is Mesocricetus auratus. The experiment in a line: Activity of syrian hamsters HMGR class I expressed in Escherichia coli BL21(DE3) using NADPH as substrate after 5 min by microplate reader.

As for `CC[C@H](C)C(=O)O[C@H]1C[C@@H](C)C=C2C=C[C@H](C)[C@H](CC[C@@H]3C[C@@H](O)CC(=O)O3)[C@H]21` [LOVASTATIN], the Ki in test [1] stood at 320 µM; in test [2], 116 µM; in [3] it was 130 µM; in test [4] it was 530 µM; in test [5] it was 180 µM. In addition, the Ratio Ki in test [6] came to 20.
Regarding `CCCCCC[C@H](O)CCC[C@H](O)[C@H]1CC[C@H]([C@H](O)CC[C@H](O)[C@@H]2CC[C@@H](CCCCCCCCCC3=C[C@H](C)OC3=O)O2)O1` [SQUAMOSTATIN A], in test [2], the Ki was 6.45 µM.
As to `CC(C)(CO[P@@](=O)(O)O[P@@](=O)(O)OC[C@H]1O[C@@H](n2cnc3c(N)ncnc32)[C@H](O)[C@@H]1OP(=O)(O)O)[C@@H](O)C(=O)NCCC(=O)NCCSC(=O)C[C@@](C)(O)CC(=O)O`, the Km is 60 µM in [7]; 20 µM in test [8]; 75.9 µM in [9]; 40 µM in test [10]; 19.8 µM in test [11].
Turning to `NC(=O)c1ccc[n+]([C@@H]2O[C@H](COP(=O)([O-])OP(=O)(O)OC[C@H]3O[C@@H](n4cnc5c(N)ncnc54)[C@H](OP(=O)(O)O)[C@@H]3O)[C@@H](O)[C@H]2O)c1`, the kcat/Km in test [12] amounted to 186000 M⁻¹ s⁻¹; in test [17], 322000 M⁻¹ s⁻¹. Moreover, the Km in test [13] is 38.9 µM; in test [14] it was 12.9 µM; in [15] it was 66 µM; in test [16], 70 µM; in test [18] it was 80 µM. For the same molecule, the figures for the kcat in test [13] and in test [14] were 11.9 s⁻¹ and 22.6 s⁻¹, respectively.
For the molecule `CCCCC[C@H](O)CCCC[C@H](O)[C@H]1CC[C@H]([C@H]2CC[C@H]([C@H](O)CCCCCCCCCCCCC3=C[C@H](C)OC3=O)O2)O1` [MOTRILIN], in [2], the inhibition constant Ki turned out to be 20.5 µM.
Consider `CCCCCCCCCCC(O)C1CCC(C2CCC(C(O)CCCCCCCC[C@H](O)CC3=C[C@@H](C)OC3=O)O2)O1` (some centres undefined) [ASIMICIN], for which the Ki in [2] was found to be 12.2 µM.
Consider `CCCCCCCCCC[C@H](O)[C@H]1CC[C@H]([C@H](O)CC[C@H](O)[C@@H]2CC[C@@H](CCCCCCC[C@@H](O)CC3=C[C@H](C)OC3=O)O2)O1` [BULLATALICIN], for which, in test [2], the Ki stood at 17.7 µM.
